Results from ChEMBL document CHEMBL1156829 (Proc Natl Acad Sci U S A, 2008).

Legend:
Plasmodium falciparum [1] = assay: NOVARTIS: Inhibition of Plasmodium falciparum W2 (drug-resistant) proliferation in erythrocyte-based infection assay; type: functional, organism-based; conditions: Plasmodium falciparum, W2; read-out: EC50
[2] = NOVARTIS: Cytotoxicity against human hepatocellular carcinoma cell line (Huh7); type: toxicity, cell-based, Huh-7; conditions: Huh7 cells (hepatocellular carcinoma cell line)
Plasmodium falciparum [3] = assay: NOVARTIS: Inhibition of Plasmodium falciparum 3D7 (drug-susceptible) proliferation in erythrocyte-based infection assay; type: functional, organism-based; conditions: Plasmodium falciparum, 3D7

Compound | EC50 (Plasmodium falciparum [1]) [µM] | CC50 [2] [µM] | EC50 (Plasmodium falciparum [3]) [µM]
COc1ccc(-n2nc3c(c2NC(=O)/C=C\c2cc(OC)c(OC)c(OC)c2)CSC3)cc1 | 0.0857 | > 10 | > 0.752
CCOC(=O)c1ccc(-c2c(-c3cc(CC)c(OC)cc3O)noc2C)o1 | 0.433 | 13.8 | 0.927
O=C(C(Cc1c[nH]c2ccccc12)NS(=O)(=O)c1ccc(Cl)cc1)N1CCCCC1 (configuration not stated) | 0.488 | > 100 | 0.719
CC(=O)N1CC(=NNC(=O)C(C)Nc2c(C)cccc2C)c2ccccc21 (configuration not stated) | 1.42 | > 10 | 1.96
CCCCCCCCNC(C)C(O)c1ccc(SC(C)C)cc1 (configuration not stated) [SULOCTIDIL] | 0.603 | 10.5 | 0.0824
COc1ccccc1NC(=O)N1CCN(C(=O)c2nc(-c3ccccc3)nc(C)c2C(=O)OC(C)C)CC1C (configuration not stated) | < 0.0169 | > 10 | 0.529
COc1ccccc1CNC(=O)CCC1N=C2c3ccccc3N=C(SCC(=O)Nc3ccc(F)cc3)N2C1=O (configuration not stated) | 2.51 | > 100 | 5.29
CCCc1c(C)nc2ccccc2c1O | 0.429 | > 100 | 0.63
COC(=O)c1ccccc1NC(=O)CN(C)c1nc(-c2ccc(OC)cc2)no1 | 0.449 | > 10 | 0.786
Cc1ccc(C(CCNc2ncnc3c2[nH]c2ccccc23)c2ccco2)cc1 (configuration not stated) | 0.524 | 19.4 | 0.736
Fc1ccc(CSc2ccc3nnc(-c4cccnc4)n3n2)cc1 | > 0.937 | > 10 | > 1.25
Cc1ccc(C(=O)CSc2nc(N)c(C#N)c(-c3cccs3)c2C#N)cc1 | > 12.5 | > 100 | > 5
COc1ccccc1C(=O)NNC(=O)c1ccccn1 | 1.38 | 8.7 | 1.71
CCN(CC)CCNC(=O)c1cc(-c2ccc(Cl)cc2)cc(-n2cnnn2)c1 | < 0.0261 | > 10 | 0.644
Cc1cccc(C)c1NC(=O)C(O)c1ccc(Cl)cc1Cl (configuration not stated) | 2.2 | > 10 | > 1.25
Cc1cc2c(cc1C)NC(c1ccc(Cl)c(F)c1)C1=C(CC(C)(C)CC1=O)N2 (configuration not stated) | 1 | 64.5 | 1.07
COc1ccc(OC)c(-c2ccc(O)c(CNCCc3cccc(F)c3)c2)c1 | 0.106 | > 10 | 0.675
CC(=O)N(C1=C(N(C)C)C(=O)c2ccccc2C1=O)c1ccc(F)cc1 | 0.032 | 2.68 | 0.0244
CC(=O)c1ccc(N2CCN(Cc3cc(-c4ccnc5cc(Cl)ccc45)ccc3O)CC2)cc1 | 0.228 | > 100 | 2.81
Cc1cccc(-n2nc(C(C)(C)C)cc2NC(=O)CN(C(=O)/C=C/c2ccccc2)C(C)C)c1C | 0.0855 | > 10 | > 1.75
COc1cccc(CN2CCc3nc(N4CCCCC4)sc3C2)c1 | 0.216 | > 10 | 0.52
CN(CCCNc1ccnc2cc(Cl)ccc12)C(=O)c1ccccc1 | 0.391 | > 10 | 0.723
CCOc1ccc(CCNC(=O)c2cccs2)cc1OCC | 0.56 | > 100 | 0.89

Compound | EC50 (Plasmodium falciparum [1]) [µM] | CC50 [2] [µM] | EC50 (Plasmodium falciparum [3]) [µM]
COc1cc(C2Nc3ccc4ccccc4c3C3=C2C(=O)CC(C)(C)C3)ccc1Oc1ccc([N+](=O)[O-])cc1C(F)(F)F (configuration not stated) | 0.0958 | > 100 | 0.285
O=C1CSc2nc3ccccc3n21 | 1.06 | > 100 | 7.92
CC1(C)N=C(N)N=C(N)N1c1ccc(Br)cc1 | 0.533 | > 10 | 0.000592
C=CC1CN2CCC1CC2C(O)c1ccnc2ccccc12 (configuration not stated) | 0.0841 | > 100 | 0.0435
COc1cc2c(cc1/C=C(/C#N)c1cccc(C)c1)OCO2 | > 1.25 | > 10 | > 1.06
Cc1n[nH]c2c1C(c1ccc([N+](=O)[O-])cc1)N(c1ccc(Br)cc1)C2=O (configuration not stated) | > 6.36 | > 100 | > 12.5
Cc1ccc[n+](C(C)C(=O)c2ccc(-c3ccccc3)cc2)c1 (configuration not stated) | 0.649 | > 100 | 1.61
COc1c(C=NNc2nc(Nc3ccc([N+](=O)[O-])cc3)nc(N3CCN(C)CC3)n2)cccc1[N+](=O)[O-] | 0.493 | 56.9 | 0.34
COc1cc(C(=O)Nc2cnc3ccccc3c2)ccc1-n1cnnn1 | 4.75 | > 100 | 3.98
N#CC(=Cc1cn(Cc2ccc(Cl)cc2Cl)c2ccccc12)c1nc2ccccc2[nH]1 | 1.02 | > 100 | 0.27
CCOc1cc(C(=O)Nc2ccc(-c3nc4ccccc4[nH]3)cc2)cc(OCC)c1OCC | 0.763 | 40.1 | 0.229
COc1ccc(-[n+]2cc(-c3ccc(Br)cc3)n3c2SCCC3)cc1 | 0.172 | > 100 | 0.609
CSc1cccc([C@@H]2C[C@H]3CN(c4ccccc4)C(=O)[C@]34CCCN24)c1 | 0.48 | 23.5 | 1.21
CN1C[C@@H](CSc2ccccn2)C=C2c3cccc4[nH]cc(c34)C[C@H]21 | 0.393 | > 10 | 0.226
COc1ccccc1/C=C\CN(C(=O)c1ccc(C)cc1)C(c1ccccc1)c1ccccc1 | > 1.35 | > 4.36 | 1.12
CCOC(=O)C1=CN(c2cc(C)ccc2C)C=C(C(=O)OCC)C1c1ccccc1OC | 1.28 | > 100 | 4.43
COc1ccc2nc(NC(N)=NC(=O)Nc3ccccc3)nc(C)c2c1 | 0.896 | 34.8 | 0.688
Cc1ccc2nc(Nc3ncc4c(n3)CC(C)(C)CC4=O)nc(C)c2c1 | 1.25 | > 100 | > 12.5
NC(=O)/C(=C\c1cccc2ccccc12)NC(=O)c1ccccc1 | > 1.25 | > 10 | > 1.14
CCOC(=O)C1=C(CC)NC2=C(C(=O)CCC2)C1c1ccc(OC)c(Br)c1 (configuration not stated) | 0.387 | > 83.8 | 1.07
COCCNc1cc(-c2ccccn2)nc(-c2ccccn2)n1 | 0.624 | > 10 | 0.44
COc1cccc(-c2cc(C(=O)Nc3cc(Cl)ccc3O)on2)c1 | 0.065 | > 100 | 0.906
N#Cc1sccc1NS(=O)(=O)c1ccc(Cl)cc1 | > 0.413 | > 10 | > 1.25

Compound | EC50 (Plasmodium falciparum [1]) [µM] | CC50 [2] [µM] | EC50 (Plasmodium falciparum [3]) [µM]
COC(=O)C1=CNC=C(C(=O)OC)C1c1cc(OC)c(OC)cc1OC | 0.245 | > 10 | > 1.35
CC(C)CCN1C(=O)N(CCN(C)C)C(=O)C12CCN(Cc1ccc(O)cc1)CC2 | 0.123 | 68.5 | 0.74
C#CC[N+]1(CC#Cc2cccc3ccccc23)CCCCC1 | 0.484 | > 100 | 0.973
COc1ccc(-[n+]2cc(-c3ccc(Cl)cc3)n3c2SCCC3)cc1 | 1.06 | > 100 | 0.673
CCOc1ccc2[nH]c3c(NCCN(C)C)ncnc3c2c1 | 0.437 | 32.5 | 0.773
CCC(=O)N1CCc2cc(S(=O)(=O)N3CCN(c4cccc(C(F)(F)F)c4)CC3)ccc21 | 0.398 | > 10 | 0.574
Cc1cc(C)cc(NC(=S)NNc2ccnc3cc(Cl)ccc23)c1 | 2.17 | 67.7 | 1.24
N#Cc1ccc(N2CCCN(C(=S)NC3CCCC3)CC2)nc1 | 0.33 | > 100 | 0.65
CCCCCCN(C(=O)c1ccc(C(C)(C)C)cc1)C(CC)c1nc2cc(Cl)ccc2c(=O)n1CC (configuration not stated) | 1.01 | > 10 | 0.954
C=C[C@H]1CN2CC[C@H]1C[C@@H]2[C@@H](OC(=O)c1ccc(OC)cc1)c1ccnc2ccccc12 | 0.0185 | 2.61 | 0.243
O=C(/C=C/c1cccnc1)C12CC3CC(CC(C3)C1)C2 | 0.0528 | > 10 | 0.102
COc1ccc(/C=C2\SC(=Nc3ccccc3OC)NC2=O)cc1 | 0.106 | > 10 | 0.249
COc1ccc(C(OCC(=O)N2CCN(Cc3ccccc3)CC2)c2ccc(F)cc2)cn1 (configuration not stated) | 0.187 | > 10 | 0.733
O=C(Nc1ccc(NC(=O)c2ccco2)cc1Cl)c1ccccc1 | > 0.348 | > 10 | > 1.65
Fc1ccc(-n2cc(-c3ccccc3)[n+]3c2SCC3)cc1 | > 0.911 | > 10 | > 0.965
CCOC(=O)c1c(C)n(-c2ccccc2)c2ccc(OC(=O)c3ccccc3NC(=O)C(C)C)cc12 | 1.99 | > 100 | 0.885
Cc1ccc(C)c(CN2C(=O)c3ccccc3S(=O)(=O)c3ccc(C(=O)NCCCN4CCCC(C)C4)cc32)c1 (configuration not stated) | 1.75 | 12 | 1.07
CN1CCCC1CCNc1ncc(C(=O)NCc2ccccc2)c(NCC2CCCCC2)n1 (configuration not stated) | 0.1 | > 10 | 0.0544
COc1cc(C2C(C(=O)OCC(C)C)=C(C)NC3=C2C(=O)CC(c2ccccc2)C3)cc(Br)c1O (configuration not stated) | 0.911 | > 100 | 0.85
COC(=O)C1C(=O)C2=C(CC1C)NC(=O)CC2c1ccc(Cl)cc1Cl (configuration not stated) | 0.128 | > 100 | 0.991
CCN(CC)S(=O)(=O)c1cc(S(=O)(=O)c2ccc(Cl)c(S(=O)(=O)N(CC)CC)c2)ccc1Cl | > 0.278 | > 10 | > 0.927
CCOc1ccc(-c2noc(-c3ccncc3)n2)cc1OCC | > 0.847 | > 10 | > 1.25
Brc1ccc(C=NNc2nc3ccccc3[nH]2)cc1 | 0.674 | 55.8 | 0.226
